Results: patent US20220380402A1, “6-HYDRAZINOADENOSINE COMPOUNDS WITH A2A ADENOSINE RECEPTOR AGONIST ACTIVITY” (ACADEMY OF MILITARY MEDICAL SCIENCES, priority 2019, published 2022)

Columns and labels:
[1] = target: T1, A2A adenosine receptor (Homo sapiens, UniProt P29274); assay: Radioligand binding test ([3H]CGS21680 displacement, hA2A HEK-293 cell membrane); details: calculated from IC50 by Cheng and Prusoff equation; [3H]CGS21680 25 nM, Km 22 nM; 25° C., 90 minutes
T1 construct: purchased PerkinElmer Research Products (Boston, Mass.); host or cells: HEK-293 cells, stably transfected; membrane preparation
Method: [3H]CGS21680 (2-[p-(2-carboxyethyl)phenylethylamino]-5′-N-ethylformamidoadenosine, [carboxy-1-ethyl-3H(N)]; 250 μCi) was purchased from PerkinElmer Research Products (Boston, Mass.).
Cell membrane stably transfected with (human) A2A adenosine receptor was prepared in HEK-293 cells. The cell membrane was obtained from PerkinElmer Research Products (Boston, Mass.).
CGS21680 (2-[p-(2-carboxyethyl)phenylethylamino]-5′-N-ethylformamidoadenosine) was purchased from Selleck (Shanghai, CN).
The A2A adenosine receptors used were all expressed in the cell membrane. […] The specific binding percentage of [3H]CGS21680 was calculated according to the CPM value, % specific binding of [3H]CGS21680=(CPMsample−CPMLow Control)/(CPMHigh Control−CPMLow Control)*100, in which
High Control was 0.5% DMSO, Low Control was 100 μM CGS21680. The IC50 value was calculated based on the compound concentration and the specific binding percentage of [3H]CGS21680 by curve fitting.
The inhibition constant (Ki) value was calculated from the IC50 value according to the Cheng and Prusoff equation, Ki=IC50/(1+[S]/Km), in which [S] was the concentration of the radioligand (25 nM), and Km was the human A2AAR dissociation constant (22 nM) of [3H]CGS21680. The inhibition constant Ki values for Compounds 1 to 20 of the present invention binding to A2A adenosine receptor were shown in Table 1.

[2] = target: human adenosine receptor A2A (Homo sapiens, UniProt P29274); assay: Adenosine receptor A2A cAMP test (LANCE Ultra cAMP, hADORA2A-HEK293 cells); assay type: cell-based
Excerpt: Experimental reagents and consumables: DMEM/F12, G418, Penicillin-Streptomycin, Versene Solution, HEPES, Hank's Buffered Saline Solution, PBS (pH 7.4, 1×, sterile), FBS, BSA Stabilizer 7.5%, Rolipram, NECA, were purchased from Gibico, Hyclone and Sigma, respectively. LANCE® Ultra cAMP kit (Eu-cAMP tracer, Ulight-anti-cAMP reagent, cAMP detection buffer) and hADORA2A-HEK293 cells were purchased from PerkinElmer Research Products (Boston, Mass.). All other reagents were of analytical grade and obtained from commercial sources. 384-well polypropylene microplate and 384-well white solid plate were purchased from Labcyte and Corning, respectively.
Cells stably expressing human adenosine receptor A2A (hADORA2A-HEK293 cells) were cultured in DMEM/F12 medium containing 10% FBS, 1× Penicillin-Streptomycin and 400 μg/ml G418 in a 37° C., 5% CO2 environment. Before the experiment, the cells were digested with Versene solution, and the cells were collected by centrifugation at 200 g at room temperature for 5 minutes, and finally resuspended with detection buffer (Hank's buffered saline solution, containing 5 mM HEPES, 0.1% BSA stabilizer and 10 μM Rolipram, pH 7.4). TECAN automated pipetting workstation was used to prepare a compound source plate by 3-fold diluting the compound in a 384-well polypropylene microplate with DMSO to form 11 concentration points, in which the 11 concentration points of the compound were 10 mM, 3.33 mM, 1.11 mM, 0.37 mM, 0.12 mM, 0.041 mM, 0.013 mM, 4.57×10^−3 mM, 1.52×10^−3 mM, 5×10^−4 mM and 1.7×10^−4 mM, respectively. Echo ultrasonic pipetting system (Labcyte) was used to transfer the test compound from the compound source plate to the detection plate, in which the volume of the compound transferred was 10 nl/well. The hADORA2A-HEK293 cell suspension was diluted with detection buffer to 30,000 cells/ml, and the cell suspension was transferred to the detection plate at a volume of 10 μl/well (300 cells/well). The detection plate was centrifuged at 150 g for 1 minute and pre-incubated at room temperature for 30 minutes. […] EnVison microplate reader (EnVision multimode plate reader, PerkinElmer) was used to test the level of cyclic adenosine monophosphate in the final solution (λex=320 nm, λem=665 nm & 615 nm). The EC50 (nM) value of the compound interacting with A2A adenosine receptor to stimulate the production of a level of cyclic adenosine monophosphate was calculated. The compound A2A receptor agonist titer was expressed as the EC50 (nM) value of the compound interacting with the A2A adenosine receptor to stimulate the production of a level of cyclic adenosine monophosphate.

[3] = system: blood-brain barrier; assay: Animal experiment of blood-brain barrier opening (FITC-Dextran in brain of SD rats); assay type: in vivo
Method: Fluorescein-labeled dextran FITC-Dextran (CAS: 60842-46-8) with a molecular weight of 10,000 MW was purchased from […] (Shanghai) Chemical Industry Development Co., Ltd.; PBS solution and experimental animal SD rats were obtained from commercial sources. FITC-Dextran solution was prepared with PBS to obtain six concentration gradients (0.001, 0.01, 0.1, 1, 0.5, 10 μg/ml), and a FITC-Dextran concentration standard curve was prepared by using microplate reader (λex=490 nm, λem=520 nm); 10 mg/ml FITC-Dextran solution was separately prepared, Compound 5 was added to PBS solution to make 1 mg/ml solution, 1 ml of 10 mg/ml FITC-Dextran solution and 1 ml of 1 mg/ml Compound 5 PBS solution were taken to make an administration solution; 1 ml of 10 mg/ml FITC-Dextran solution and 1 ml of PBS solution taken to make a blank control solution; 6 SD rats were injected with 2 ml of the administration solution respectively in the tail vein, while another 6 SD rats were injected with 2 ml of the blank control solution in the tail vein; after 30 minutes, the brain tissues of all SD rats were taken out, homogenized and centrifuged at 10,000 rpm for 15 minutes, and the supernatants were taken for testing; and a microplate reader (λex=490 nm, λem=520 nm) was used for the fluorescence detection of the solutions to be tested. […]

T1 sequence (P29274 whole entry): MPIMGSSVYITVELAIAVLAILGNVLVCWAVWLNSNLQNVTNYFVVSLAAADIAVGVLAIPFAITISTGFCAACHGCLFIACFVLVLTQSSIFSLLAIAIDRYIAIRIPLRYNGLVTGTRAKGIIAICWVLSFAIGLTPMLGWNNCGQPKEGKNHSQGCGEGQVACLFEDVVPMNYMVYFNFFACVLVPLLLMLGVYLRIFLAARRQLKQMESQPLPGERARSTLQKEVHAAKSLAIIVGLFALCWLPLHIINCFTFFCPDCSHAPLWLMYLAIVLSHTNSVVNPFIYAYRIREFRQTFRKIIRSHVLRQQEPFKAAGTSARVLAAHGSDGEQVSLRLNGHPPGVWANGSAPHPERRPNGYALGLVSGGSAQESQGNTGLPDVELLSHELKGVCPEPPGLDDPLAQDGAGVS
Sequence of human adenosine receptor A2A (P29274 whole entry): as above

In the case of `OC[C@H]1O[C@@H](n2cnc3c(N/N=C/c4ccc(OCc5ccc(F)cc5)cc4)ncnc32)[C@H](O)[C@@H]1O` [Compound 7, (2R,3R,4S,5R)-2-{6-{2-{(E)-4-[(4-fluorobenzyl)oxy]benzylidene}hydrazino}9H-purin-9-yl}-5-(hydroxymethyl)tetrahydrofuran-3,4-diol], the melting point is reported as 206 °C, the Ki [1] is reported as 13.8 nM and the “hA2AAR agonist function (in words)” value ([2]; conclusion from cAMP test) is reported as “hA2AAR agonists”. The EC50 ([2]; hADORA2A-HEK293 cells, 300 cells/well, stimulation of cyclic adenosine monophosphate) was 18.6 nM and the “FITC-Dextran concentration in the brain of SD rats” value ([3]; tail vein injection of 2 ml (10 mg/ml FITC-Dextran 10,000 MW + 1 mg/ml compound in PBS, 1:1), brain homogenate supernatant after 30 minutes, average of 6 rats, blank control 0.021) was 0.057 µg/mL.

For `OC[C@H]1O[C@@H](n2cnc3c(N/N=C/c4ccc(-c5ccc(Br)cc5)o4)ncnc32)[C@H](O)[C@@H]1O` [Compound 5, (2R,3R,4S,5R)-2-{6-{2-{(E)-[5-(4-bromophenyl)furan-2-yl]methylene}hydrazino}-9H-purin-9-yl}-5-(hydroxymethyl)tetrahydrofuran-3,4-diol], the melting point was 162 °C, the Ki [1] was 353 nM and the “Opening of the blood-brain barrier (in words)” value ([3]; SD rats, FITC-Dextran co-administered by tail vein, 30 minutes) was “could open the blood-brain barrier”.
